# Experimental data published in ChEMBL document CHEMBL1138274, “Discovery of potent and selective adamantane-based small-molecule P2X(7) receptor antagonists/interleukin-1beta inhibitors” (J Med Chem, 2007).
# Calls of active or inactive are those of the source. No cut-off for these calls is given here.
# Key:
# P2X purinoceptor 7 [1] = molecular target: T1, P2X purinoceptor 7 (Rattus norvegicus, UniProt Q64663); experiment: Antagonist activity at rat P2X7 receptor transfected in HEK cells assessed as inhibition of benzoyl-ATP-induced changes in plasma membrane pore formation; assay type: functional, cell-based, HEK293; conditions: for Kb: read-out: pA2 (converted)
# T1 sequence (Q64663 whole entry): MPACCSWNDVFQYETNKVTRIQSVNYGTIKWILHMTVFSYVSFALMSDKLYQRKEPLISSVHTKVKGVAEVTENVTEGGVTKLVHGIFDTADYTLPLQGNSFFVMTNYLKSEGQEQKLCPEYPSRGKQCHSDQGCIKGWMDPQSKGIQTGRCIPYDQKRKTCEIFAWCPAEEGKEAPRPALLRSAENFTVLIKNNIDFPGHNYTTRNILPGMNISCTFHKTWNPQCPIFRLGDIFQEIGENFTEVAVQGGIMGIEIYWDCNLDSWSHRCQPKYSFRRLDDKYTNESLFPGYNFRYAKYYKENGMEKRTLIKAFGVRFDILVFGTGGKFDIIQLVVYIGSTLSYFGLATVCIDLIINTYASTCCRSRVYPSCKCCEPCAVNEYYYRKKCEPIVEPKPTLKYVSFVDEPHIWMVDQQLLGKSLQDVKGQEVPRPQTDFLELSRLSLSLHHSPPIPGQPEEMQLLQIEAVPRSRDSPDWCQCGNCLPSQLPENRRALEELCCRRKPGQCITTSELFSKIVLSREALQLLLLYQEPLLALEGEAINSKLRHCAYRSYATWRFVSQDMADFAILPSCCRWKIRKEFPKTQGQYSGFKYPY
# P2X purinoceptor 7 [2] = molecular target: T2, P2X purinoceptor 7 (Homo sapiens, UniProt Q99572); experiment: Antagonist activity at human P2X7 receptor transfected in THP1 cells assessed as inhibition of benzoyl-ATP-induced changes in plasma membrane pore formation; assay type: functional, cell-based, THP-1; conditions: read-out: pA2 (converted)
# T2 sequence (Q99572 whole entry): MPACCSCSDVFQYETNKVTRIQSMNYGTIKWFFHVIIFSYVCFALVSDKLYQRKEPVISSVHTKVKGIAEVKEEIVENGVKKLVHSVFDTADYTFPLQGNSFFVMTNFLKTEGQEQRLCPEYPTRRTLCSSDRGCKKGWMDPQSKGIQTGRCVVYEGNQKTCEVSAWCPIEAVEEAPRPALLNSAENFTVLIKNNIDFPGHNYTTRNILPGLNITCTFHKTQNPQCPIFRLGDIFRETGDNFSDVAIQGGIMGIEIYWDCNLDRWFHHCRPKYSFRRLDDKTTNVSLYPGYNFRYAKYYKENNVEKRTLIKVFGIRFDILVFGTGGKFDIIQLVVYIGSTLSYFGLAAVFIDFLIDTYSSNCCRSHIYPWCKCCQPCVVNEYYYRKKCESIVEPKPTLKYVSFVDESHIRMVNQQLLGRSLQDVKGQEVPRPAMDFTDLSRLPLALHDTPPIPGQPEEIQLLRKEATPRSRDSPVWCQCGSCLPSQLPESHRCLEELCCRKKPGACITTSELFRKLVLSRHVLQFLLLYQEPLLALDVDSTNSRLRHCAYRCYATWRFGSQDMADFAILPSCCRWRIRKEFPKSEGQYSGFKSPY
# [3] = Volume of distribution at steady state in Sprague-Dawley rat; assay type: ADME, organism-based; conditions: in vivo, read-out: Vdss
# Hepatocyte [4] = experiment: Intrinsic clearance in rat hepatocytes; assay type: ADME, cell-based, Liver
# [5] = Clearance in Sprague-Dawley rat; assay type: ADME, organism-based; conditions: in vivo
# [6] = Bioavailability in Sprague-Dawley rat; assay type: ADME, organism-based; conditions: in vivo
# Monocyte [7] = experiment: Inhibition of BzATP-induced IL18 release from LPS-primed human monocytes by ELISA; assay type: functional, cell-based
# Monocyte [8] = experiment: Inhibition of BzATP-induced IL1-beta release from LPS-primed human monocytes by ELISA; assay type: functional, cell-based
# Hepatocyte [9] = experiment: Intrinsic clearance in human hepatocytes; assay type: ADME, cell-based, Liver
# [10] = Half life in Sprague-Dawley rat; assay type: ADME, organism-based; conditions: in vivo
# Vasopressin V1a receptor = Vasopressin V1a receptor (Homo sapiens, UniProt P37288); experiment: Activity at vasopressin V1A receptor
# Chain of Vasopressin V1a receptor (P37288 whole entry): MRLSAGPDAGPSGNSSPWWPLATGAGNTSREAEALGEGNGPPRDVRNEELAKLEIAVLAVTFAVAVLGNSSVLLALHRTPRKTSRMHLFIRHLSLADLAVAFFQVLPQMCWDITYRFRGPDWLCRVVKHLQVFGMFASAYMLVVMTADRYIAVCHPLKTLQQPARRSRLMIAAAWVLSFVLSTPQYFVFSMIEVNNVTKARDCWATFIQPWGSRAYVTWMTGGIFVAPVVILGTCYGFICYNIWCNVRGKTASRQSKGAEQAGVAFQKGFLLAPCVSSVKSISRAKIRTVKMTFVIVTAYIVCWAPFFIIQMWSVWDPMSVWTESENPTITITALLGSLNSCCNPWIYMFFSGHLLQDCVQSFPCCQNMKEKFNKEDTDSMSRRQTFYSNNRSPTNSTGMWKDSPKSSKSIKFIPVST
# [11] = molecular target: T3, P2X purinoceptor 3 (Homo sapiens) (UniProt P56373); experiment: Activity at human P2X3 receptor at 10 uM
# T3 sequence (whole entry): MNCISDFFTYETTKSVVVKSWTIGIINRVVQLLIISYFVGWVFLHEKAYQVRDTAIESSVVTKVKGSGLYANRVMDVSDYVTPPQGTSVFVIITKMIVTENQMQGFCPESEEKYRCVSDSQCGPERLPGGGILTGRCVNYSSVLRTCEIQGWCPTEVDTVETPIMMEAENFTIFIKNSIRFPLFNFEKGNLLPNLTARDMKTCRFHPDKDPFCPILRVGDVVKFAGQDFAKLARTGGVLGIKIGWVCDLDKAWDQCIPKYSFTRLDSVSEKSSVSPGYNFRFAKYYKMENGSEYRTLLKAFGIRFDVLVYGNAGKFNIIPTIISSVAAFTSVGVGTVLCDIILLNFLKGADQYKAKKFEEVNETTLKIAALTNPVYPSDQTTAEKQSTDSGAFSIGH
# [12] = molecular target: T4, P2X purinoceptor 2 (Rattus norvegicus) (UniProt P49653); experiment: Activity at rat P2X2 receptor at 10 uM
# T4 sequence (whole entry): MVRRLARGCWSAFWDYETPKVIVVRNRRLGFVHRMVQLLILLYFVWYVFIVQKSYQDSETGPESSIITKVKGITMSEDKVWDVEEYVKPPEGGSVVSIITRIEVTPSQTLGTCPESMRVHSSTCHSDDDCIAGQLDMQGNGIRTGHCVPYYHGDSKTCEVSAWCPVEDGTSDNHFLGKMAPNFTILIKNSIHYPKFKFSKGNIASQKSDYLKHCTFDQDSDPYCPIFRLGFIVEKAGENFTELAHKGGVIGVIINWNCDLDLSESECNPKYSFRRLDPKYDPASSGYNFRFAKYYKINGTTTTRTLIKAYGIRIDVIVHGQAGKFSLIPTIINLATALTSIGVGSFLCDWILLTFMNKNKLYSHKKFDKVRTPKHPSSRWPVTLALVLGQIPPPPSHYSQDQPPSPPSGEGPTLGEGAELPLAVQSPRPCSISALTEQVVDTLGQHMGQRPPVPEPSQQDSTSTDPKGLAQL
# [13] = molecular target: T5, P2X purinoceptor 4 (Homo sapiens) (UniProt Q99571); experiment: Activity at human P2X4 receptor at 10 uM
# T5 sequence (whole entry): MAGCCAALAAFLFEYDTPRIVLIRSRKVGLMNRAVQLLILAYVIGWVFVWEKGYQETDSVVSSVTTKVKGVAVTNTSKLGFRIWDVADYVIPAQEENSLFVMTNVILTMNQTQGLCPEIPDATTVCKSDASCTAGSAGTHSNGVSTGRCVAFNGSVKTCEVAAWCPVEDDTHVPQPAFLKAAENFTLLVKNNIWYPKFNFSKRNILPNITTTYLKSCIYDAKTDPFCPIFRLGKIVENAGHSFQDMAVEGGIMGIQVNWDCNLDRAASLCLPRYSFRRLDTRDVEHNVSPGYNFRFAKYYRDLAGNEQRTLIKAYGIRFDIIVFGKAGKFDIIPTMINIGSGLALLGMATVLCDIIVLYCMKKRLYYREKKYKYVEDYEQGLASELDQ
# Rattus norvegicus = species on record: Rattus norvegicus; experiment: Activity at rat P2X2/3 heteromeric receptor at 10 uM
# [14] = molecular target: P2X purinoceptor 5 (Homo sapiens) (UniProt Q93086); experiment: Activity at human P2X5 receptor at 10 uM
# Chain of P2X purinoceptor 5 (Homo sapiens) (Q93086 whole entry): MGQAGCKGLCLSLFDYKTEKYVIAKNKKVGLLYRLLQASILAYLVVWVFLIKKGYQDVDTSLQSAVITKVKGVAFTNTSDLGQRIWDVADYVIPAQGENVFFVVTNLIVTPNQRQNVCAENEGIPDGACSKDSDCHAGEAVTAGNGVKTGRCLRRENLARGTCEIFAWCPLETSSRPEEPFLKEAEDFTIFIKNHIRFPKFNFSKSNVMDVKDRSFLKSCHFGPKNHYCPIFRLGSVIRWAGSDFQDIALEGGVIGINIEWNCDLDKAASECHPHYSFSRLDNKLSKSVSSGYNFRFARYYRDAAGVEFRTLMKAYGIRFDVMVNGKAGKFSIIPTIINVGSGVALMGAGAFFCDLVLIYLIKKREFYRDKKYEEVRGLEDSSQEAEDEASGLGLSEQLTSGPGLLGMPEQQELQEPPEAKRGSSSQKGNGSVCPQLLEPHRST
# [15] = Activity at sigma receptor; set-up: species or system Homo sapiens
# [16] = Protein binding in rat plasma; assay type: ADME, cell-free; conditions: read-out: PPB (converted)
# [17] = molecular target: T6, P2X purinoceptor 1 (Homo sapiens) (UniProt P51575); experiment: Activity at human P2X1 receptor at 10 uM
# T6 sequence (whole entry): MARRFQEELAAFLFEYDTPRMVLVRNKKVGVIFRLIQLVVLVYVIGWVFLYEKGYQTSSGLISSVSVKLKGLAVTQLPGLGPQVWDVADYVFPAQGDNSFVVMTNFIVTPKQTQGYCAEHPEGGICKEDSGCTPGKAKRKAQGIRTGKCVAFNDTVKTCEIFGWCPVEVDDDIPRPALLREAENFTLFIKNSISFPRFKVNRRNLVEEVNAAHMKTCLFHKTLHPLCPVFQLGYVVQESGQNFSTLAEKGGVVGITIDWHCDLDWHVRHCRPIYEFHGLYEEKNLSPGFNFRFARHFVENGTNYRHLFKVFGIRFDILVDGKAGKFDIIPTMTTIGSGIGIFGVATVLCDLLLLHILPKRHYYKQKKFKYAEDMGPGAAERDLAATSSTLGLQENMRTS
SMILES,IC50 (P2X purinoceptor 7 [1]; read-out: Log IC50 (converted)),Kb (P2X purinoceptor 7 [2]),also measured
O=C(NCC12CC3CC(CC(C3)C1)C2)c1cc(NC2CCNCC2)ccc1Cl,0.501 µM,0.0251 µM,
O=C(NCC12CC3CC(CC(C3)C1)C2)c1cc(OC2CCNCC2)ccc1Cl,0.631 µM,0.0158 µM,
O=C(NCC12CC3CC(CC(C3)C1)C2)c1cc(NC2CCCNC2)ccc1Cl (racemic),,0.00501 µM,IC50 (P2X purinoceptor 7 [1]; read-out: IC50): 0.03 µM
O=C(NCC12CC3CC(CC(C3)C1)C2)c1cc(CC2CCCNC2)ccc1Cl (racemic),,0.00631 µM,IC50 (P2X purinoceptor 7 [1]; read-out: IC50): 0.03 µM
O=C(NCC12CC3CC(CC(C3)C1)C2)c1nc(OC2CCCNC2)ncc1Cl (centres undefined),0.316 µM,0.251 µM,
O=C(NCC12CC3CC(CC(C3)C1)C2)c1cc(CC2CCNCC2)ccc1Cl,0.0631 µM,0.0158 µM,
O=C(NCC12CC3CC(CC(C3)C1)C2)c1cc(N2CCNCC2)ccc1Cl,1.26 µM,0.0316 µM,
O=C(NCC12CC3CC(CC(C3)C1)C2)c1cc(C(=O)N2CC3CNCC(C2)O3)ccc1Cl,,,IC50 (Vasopressin V1a receptor): 7 µM; Activity [11]: inactive; Activity [12]: inactive; Activity [13]: inactive; Activity (Rattus norvegicus): inactive; Activity [14]: inactive; IC50 [15]: 4 µM
O=C(NCC12CC3CC(CC(C3)C1)C2)c1cc(CN2C[C@@H]3C[C@H]2CN3)ccc1Cl,0.251 µM,0.00501 µM,
O=C(NCC12CC3CC(CC(C3)C1)C2)c1cc(O[C@@H]2CCCNC2)ccc1Cl,0.316 µM,0.00631 µM,
O=C(NCC12CC3CC(CC(C3)C1)C2)c1cc(O[C@H]2CCCNC2)ccc1Cl,0.1 µM,0.01 µM,
O=C(NCC12CC3CC(CC(C3)C1)C2)c1c(Cl)cccc1OC1CCNCC1,> 10 µM,> 10 µM,
O=C(NCC12CC3CC(CC(C3)C1)C2)c1cc(CN2CC3CNCC(C2)O3)ccc1Cl,,,Kb (P2X purinoceptor 7 [1]): 0.0251 µM
Cc1ccc(C(=O)N2CC3CNCC(C2)O3)cc1C(=O)NCC12CC3CC(CC(C3)C1)C2,,,IC50 (Vasopressin V1a receptor): 7 µM; Activity [11]: inactive; Kb (P2X purinoceptor 7 [1]): 0.0158 µM; Activity [12]: inactive; Activity [13]: inactive; fraction unbound [16]: 0.34; Activity (Rattus norvegicus): inactive; Activity [14]: inactive; IC50 [15]: 4 µM; Activity [17]: inactive

# Continued, in another order:
IC50 (P2X purinoceptor 7 [1]; read-out: Log IC50 (converted)),Kb (P2X purinoceptor 7 [2]),SMILES,also measured
0.794 µM,0.126 µM,O=C(NCC12CC3CC(CC(C3)C1)C2)c1ccc(CN2CCCCC2)cc1Cl,
0.398 µM,0.01 µM,O=C(NCC12CC3CC(CC(C3)C1)C2)c1cc(CN2CCNCC2)ccc1Cl,Vd [3]: 5.31 L/kg; CL (Hepatocyte [4]): < 5 µL/min; clearance [5]: 0.78 L/h/kg; bioavailability [6]: 79%; IC50 (Monocyte [7]): 0.0398 µM; IC50 (Monocyte [8]): 0.0794 µM; CL (Hepatocyte [9]): < 3 µL/min; half-life [10]: 5.2 h
0.316 µM,0.0158 µM,O=C(NCC12CC3CC(CC(C3)C1)C2)c1cc(C2CCNCC2)ccc1Cl,
> 10 µM,> 10 µM,Cc1oc(CN2CCNCC2)cc1C(=O)NCC12CC3CC(CC(C3)C1)C2,Activity (Monocyte [7]): Active; Activity (Monocyte [8]): inactive
> 10 µM,0.2 µM,O=C(NCC12CC3CC(CC(C3)C1)C2)c1cccc(CN2CCCCC2)c1Cl,
> 10 µM,0.316 µM,Cc1sc(CN2CCNCC2)cc1C(=O)NCC12CC3CC(CC(C3)C1)C2,
0.794 µM,1.58 µM,Cc1nnc(OC2CCNCC2)cc1C(=O)NCC12CC3CC(CC(C3)C1)C2,
